Tests used:
[1] = target: T1, IL-8 type β receptor (IL-8Rβ) (Homo sapiens, UniProt P25025); assay: [125I] IL-8 binding assay (WGA-SPA beads, IL-8Rβ membranes); details: 20 uM compound; [125I] IL-8, IL-8Rβ membranes
T1 construct: purchased BioSignal, Montreal, Canada; host or cells: Sf9 cells
T1 sequence (P25025 1-360): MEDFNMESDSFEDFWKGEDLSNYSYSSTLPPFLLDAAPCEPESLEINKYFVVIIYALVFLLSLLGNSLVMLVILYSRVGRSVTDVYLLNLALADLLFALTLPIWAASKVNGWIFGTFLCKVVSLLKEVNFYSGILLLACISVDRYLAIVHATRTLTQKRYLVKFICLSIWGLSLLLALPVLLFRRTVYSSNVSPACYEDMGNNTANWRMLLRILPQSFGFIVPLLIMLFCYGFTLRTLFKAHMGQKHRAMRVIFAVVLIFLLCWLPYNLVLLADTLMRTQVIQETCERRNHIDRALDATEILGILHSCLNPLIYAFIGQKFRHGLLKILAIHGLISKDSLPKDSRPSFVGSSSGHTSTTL
Description: IL-8 (human recombinant) was obtained from NEN Life Science Products, Inc., Boston, Mass., with specific activity of 2200 Ci/mmol. Recombinant human IL-8 was obtained from R&D Systems, Minneapolis, Minn. IL-8 type β receptor membranes were prepared from […] co-expressed with Gαi3β1γ2 proteins by BioSignal™, Montreal, Canada. Wheat Germ Agglutinin Scintillation Proximity Assay Beads were obtained from Amersham Pharmacia Biotech, Piscataway, N.J. All assays were performed in a 96-well, solvent resistant, white PicoPlate obtained from Packard Instruments. […] The assay was initiated by the addition of WGA-SPA beads in 25 mM Hepes (pH 7.4) containing 2 mM CaCl2 and 1 mM MgCl2. After 4–6 hours of gentle agitation at room temperature, the plate was counted on the Packard TopCount liquid scintillation counter.

[2] = test system: polymorphonuclear neutrophils (PMNs); assay: GRO-α driven chemotaxis assay with PMNs (ChemoTx plate); assay type: cell-based; details: 20 μM compound; 50 nM GRO-α, human PMNs
Description: Peripheral blood from healthy human volunteers was collected into heparin, diluted in an equal volume of PBS, layered over Ficoll-Paque Plus (Pharmacia Biotech, Uppsala, Sweden), and spun at 400×g for 30 min. The PMN rich fraction was removed and residual erythrocytes were lysed with hypotonic saline. The polymorphonuclear neutrophils (PMNs) were washed once with assay buffer (Dulbecco's PBS containing divalent cations and 0.1% endotoxin-free BSA), and resuspended at 1E7 cells/mL in the same buffer. PMNs were loaded with 5 μM calcein AM (Molecular Probes, Eugene, Oreg.), washed twice and resuspended in assay buffer.
Growth Regulatory Oncogene a (GRO-α) driven chemotaxis assays were performed according to the following protocol. […] Test compounds were dissolved in DMSO (100%) at 20 mM and diluted in assay buffer to the desired concentrations; final DMSO concentration was 0.2%. Neutrophil migration proceeded for 40 min at 37° C. in a humidified incubator with 5% CO2. After removing nonmigrated cells from the top of the plate, migrated cells were quantified by reading fluorescence on a Wallac Victor.
The ratio of the positive to negative controls represents the chemotactic index of the cells. The results from this assay are reported in Tables 3–5, under the column headings IL-8 and GRO-α, and under the sub-column headings ChTx (for chemotaxis).

| Structure (SMILES) | IL-8 Binding @ 20 uM, % [1] | GRO-α ChTx @ 20 μM, % [2] |
| --- | --- | --- |
| Cc1cccc(S(=O)(=O)c2ccc(C(=O)Nc3ccc(F)cc3)c[n+]2[O-])c1 | * (“*” for % values of less than or equal to 40) | ** (“**” for % values greater than 40) |
| O=C(Nc1cccc(F)c1)c1ccc(Cl)[n+]([O-])c1 | * (“*” for % values of less than or equal to 40) | ** (“**” for % values greater than 40) |
| Nc1ccc(C(=O)Nc2ccc(F)cc2)c[n+]1[O-] | * (“*” for % values of less than or equal to 40) | * (“*” for % values of less than or equal to 40) |
| O=C(Nc1ccc(O)c(C(=O)O)c1)c1ccc(Cl)[n+]([O-])c1 | – | * (“*” for % values of less than or equal to 40) |
| O=C(O)c1cccc(S(=O)(=O)c2ccc(C(=O)Nc3ccc(F)cc3)c[n+]2[O-])c1 | ** (“**” for % values greater than 40) | * (“*” for % values of less than or equal to 40) |
| CS(=O)(=O)c1ccc(C(=O)Nc2ccc(F)cc2)c[n+]1[O-] [drawing 44] | ** (“**” for % values greater than 40) | ** (“**” for % values greater than 40) |
| O=C(Nc1cc(F)c(F)c(C(=O)O)c1F)c1ccc(Cl)[n+]([O-])c1 | – | * (“*” for % values of less than or equal to 40) |
| CC(C)(C)OC(=O)c1cccc(NC(=O)c2ccc(Cl)[n+]([O-])c2)c1 | – | ** (“**” for % values greater than 40) |
| CCS(=O)(=O)c1ccc(C(=O)Nc2ccc(F)cc2)c[n+]1[O-] [drawing 49] | ** (“**” for % values greater than 40) | ** (“**” for % values greater than 40) |
| CCCCc1ccc(NC(=O)c2ccc(Cl)[n+]([O-])c2)cc1 | – | ** (“**” for % values greater than 40) |
| O=C(Nc1ccc(F)cc1)c1ccc(-n2ccnc2)[n+]([O-])c1 | * (“*” for % values of less than or equal to 40) | * (“*” for % values of less than or equal to 40) |
| CSc1ccc(NC(=O)c2ccc(Cl)[n+]([O-])c2)cc1 | – | ** (“**” for % values greater than 40) |
| CC(C)S(=O)(=O)c1ccc(C(=O)Nc2ccc(F)cc2)c[n+]1[O-] | ** (“**” for % values greater than 40) | ** (“**” for % values greater than 40) |
| COc1cc(NC(=O)c2ccc(Cl)[n+]([O-])c2)cc(OC)c1OC | – | * (“*” for % values of less than or equal to 40) |
| O=C(Nc1cccc(F)c1F)c1ccc(Cl)[n+]([O-])c1 | – | ** (“**” for % values greater than 40) |
| O=C(NC(c1ccccc1)c1ccccc1)c1ccc(Cl)[n+]([O-])c1 | * (“*” for % values of less than or equal to 40) | ** (“**” for % values greater than 40) |
| N#Cc1cccc(NC(=O)c2ccc(Cl)[n+]([O-])c2)c1 | – | ** (“**” for % values greater than 40) |
| COc1ccc(C(=O)Nc2ccc(F)cc2)c[n+]1[O-] | * (“*” for % values of less than or equal to 40) | ** (“**” for % values greater than 40) |
| CN(C)c1ccc(C(=O)Nc2ccc(F)cc2)c[n+]1[O-] | * (“*” for % values of less than or equal to 40) | – |
| O=C(NCc1ccc(F)cc1)c1ccc(Cl)[n+]([O-])c1 | * (“*” for % values of less than or equal to 40) | * (“*” for % values of less than or equal to 40) |
| O=C(O)CCS(=O)(=O)c1ccc(C(=O)Nc2ccc(F)cc2)c[n+]1[O-] | ** (“**” for % values greater than 40) | * (“*” for % values of less than or equal to 40) |
| O=C(O)c1cccc(NC(=O)c2ccc(Cl)[n+]([O-])c2)c1 | – | * (“*” for % values of less than or equal to 40) |
| O=C(Nc1ccc(F)cc1)c1ccc(S(=O)(=O)Cc2ccccc2)[n+]([O-])c1 [drawing 52] | ** (“**” for % values greater than 40) | ** (“**” for % values greater than 40) |

Reference: patent US7141590B2, “Pharmaceutical uses and synthesis of nicotinanilide-N-oxides” (UCB SA, priority 2000, dated 2006)
